Assay results as given in patent US9206219B2, “17-hydroxy-17-pentafluorethyl-estra-4,9(10)-dien-11-aryl derivatives, methods for the production thereof and the use thereof for treating diseases” (Bayer Intellectual Property GmbH, priority 2009, dated 2015).

Legend:
[1] = Metabolic stability in rat liver microsomes; format: in vitro ADME; details: calculated from liver microsome clearance
Method: (§1) Determination of Metabolic Stability in Human and Rat Liver Microsomes
(§2) The incubations were conducted with 2.4 ml of HLM solution (protein content 0.5 mg/ml), 30 μl of the test compound (final concentration 1 μM) and 0.6 ml of the cofactor mixture (=NADPH-generating system composed of 3 IU glucose-6-phosphate dehydrogenase, 14.6 mg glucose-6-phosphate, 1.2 mg NADP) at 37° C. in 100 mM phosphate buffer at pH 7.4. Samples were taken at 6 time points (2-60 min) and precipitated with an equal volume of methanol, and the recovery of the test substances used in the supernatant was determined by LC-MS/MS analysis. The half-life of substance degradation determined therefrom was used to calculate what is called the intrinsic clearance of the substance in the liver microsome preparation. […] In addition, under the assumptions that (i) absorption of the test substance is 100%, and (ii) the first pass is completely reflected by liver microsome metabolism, a maximum oral bioavailability (Fmax) was calculated.

[2] = Metabolic stability in human liver microsomes; format: in vitro ADME; details: calculated from liver microsome clearance
Method: as §1
Isolated human liver microsomes (HLM) were used to assess the metabolic stability of compounds of general formula I.
as §2

[3] = target: T1, human progesterone receptor A (Homo sapiens, UniProt P06401); assay: Progesterone receptor-antagonistic action in stably transfected SK-N-MC cells, MMTV-LUC reporter (PR-A); format: cell-based; details: antagonistic potency vs 0.1 nmol/l promegestone, 24 hours
T1 construct: expressed in transfected cells; host or cells: SK-N-MC human neuroblastoma cells, stably transfected with pRChPR-A-neo and pMMTV-LUC
T1 sequence (P06401 1-769 isoform P06401-2): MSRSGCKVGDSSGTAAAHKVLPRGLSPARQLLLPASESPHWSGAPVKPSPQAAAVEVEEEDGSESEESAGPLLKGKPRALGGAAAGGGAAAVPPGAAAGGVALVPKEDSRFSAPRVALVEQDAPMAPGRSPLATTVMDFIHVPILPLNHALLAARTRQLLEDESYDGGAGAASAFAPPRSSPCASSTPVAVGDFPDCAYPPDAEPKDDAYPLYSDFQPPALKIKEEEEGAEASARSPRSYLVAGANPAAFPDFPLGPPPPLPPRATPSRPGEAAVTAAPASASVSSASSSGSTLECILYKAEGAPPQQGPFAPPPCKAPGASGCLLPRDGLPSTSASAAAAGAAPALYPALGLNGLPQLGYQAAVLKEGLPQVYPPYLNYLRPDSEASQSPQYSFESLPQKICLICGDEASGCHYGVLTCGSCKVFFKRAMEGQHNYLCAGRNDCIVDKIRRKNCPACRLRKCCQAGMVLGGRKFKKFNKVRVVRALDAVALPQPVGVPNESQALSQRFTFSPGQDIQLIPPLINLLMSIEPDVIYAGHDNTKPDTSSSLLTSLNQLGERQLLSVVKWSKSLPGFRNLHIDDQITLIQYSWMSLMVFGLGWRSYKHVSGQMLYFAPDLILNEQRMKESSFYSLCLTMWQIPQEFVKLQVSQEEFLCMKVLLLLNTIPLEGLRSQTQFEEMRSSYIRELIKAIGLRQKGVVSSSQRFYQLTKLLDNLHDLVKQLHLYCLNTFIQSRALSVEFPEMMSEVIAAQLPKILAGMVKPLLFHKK
Method in brief: (§3)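 Stably transfected SK-N-MC cells express human PR-B or PR-A plus MMTV-LUC. For antagonism they were co-treated with 0.1 nmol/l promegestone and compound (0.01 nmol/l upward) for 24 hours. Luciferase in lysates was read as RLU and reported as % efficacy and IC50.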

[4] = target: T2, human progesterone receptor B (Homo sapiens, UniProt P06401); assay: Progesterone receptor-antagonistic action in stably transfected SK-N-MC cells, MMTV-LUC reporter (PR-B); format: cell-based; details: antagonistic potency vs 0.1 nmol/l promegestone, 24 hours
T2 construct: expressed in transfected cells; host or cells: SK-N-MC human neuroblastoma cells, stably transfected with pRChPR-B-neo and pMMTV-LUC
T2 sequence (P06401 1-933): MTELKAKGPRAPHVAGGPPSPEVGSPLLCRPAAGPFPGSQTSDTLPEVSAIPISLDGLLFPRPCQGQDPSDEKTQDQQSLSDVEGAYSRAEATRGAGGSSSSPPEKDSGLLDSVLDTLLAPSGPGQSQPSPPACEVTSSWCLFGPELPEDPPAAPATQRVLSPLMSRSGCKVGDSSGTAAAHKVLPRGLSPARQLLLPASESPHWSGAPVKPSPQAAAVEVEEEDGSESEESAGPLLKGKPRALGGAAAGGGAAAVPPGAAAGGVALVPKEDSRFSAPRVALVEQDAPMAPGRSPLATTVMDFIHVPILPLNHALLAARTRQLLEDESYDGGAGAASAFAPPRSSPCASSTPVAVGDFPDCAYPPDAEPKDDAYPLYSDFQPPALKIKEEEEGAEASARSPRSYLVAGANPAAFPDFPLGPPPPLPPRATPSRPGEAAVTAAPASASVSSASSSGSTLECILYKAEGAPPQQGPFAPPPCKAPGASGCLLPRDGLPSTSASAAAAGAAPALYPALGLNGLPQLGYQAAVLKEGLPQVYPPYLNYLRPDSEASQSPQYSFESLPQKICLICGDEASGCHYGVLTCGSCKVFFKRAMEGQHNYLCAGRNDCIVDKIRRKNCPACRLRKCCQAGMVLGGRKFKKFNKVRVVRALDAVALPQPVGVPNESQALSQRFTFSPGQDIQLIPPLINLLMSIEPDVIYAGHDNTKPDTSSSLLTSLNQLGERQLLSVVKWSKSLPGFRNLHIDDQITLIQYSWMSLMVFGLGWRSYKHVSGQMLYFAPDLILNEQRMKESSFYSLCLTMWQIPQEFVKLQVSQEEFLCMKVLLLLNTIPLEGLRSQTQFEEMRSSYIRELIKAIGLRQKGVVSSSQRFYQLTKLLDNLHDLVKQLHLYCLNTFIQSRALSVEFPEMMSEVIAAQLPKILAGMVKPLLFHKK
Method in brief: as §3

Predicted Fmax (maximum oral bioavailability) [1] [%]	Predicted Fmax (maximum oral bioavailability) [2] [%]	IC50 [3] [nM]	IC50 [4] [nM]	Compound
4.7	5.0	0.01	0.01	CC1(C)OCC(C)(c2ccc([C@H]3C[C@@]4(C)[C@@H](CC[C@@]4(O)C(F)(F)C(F)(F)F)[C@@H]4CCC5=CC(=O)CCC5=C43)cc2)CO1 [Example 15B, (8S,11R,13S,14S,17S)-17-hydroxy-13-methyl-17-pentafluoroethyl-11-[4-(2,2,5-trimethyl-[1,3]dioxan-5-yl)phenyl]-1,2,6,7,8,11,12,13,14,15,16,17-dodecahydrocyclopenta[a]phenanthren-3-one]
93	69	0.3	0.9	C[C@]12C[C@H](c3ccc(-c4ccc(-c5nnn[nH]5)cc4)cc3)C3=C4CCC(=O)C=C4CC[C@H]3[C@@H]1CC[C@@]2(O)C(F)(F)C(F)(F)F [Example 29, (8S,11R,13S,14S,17S)-17-hydroxy-13-methyl-17-pentafluoroethyl-11-[4′-(1H-tetrazol-5-yl)biphenyl-4-yl]-1,2,6,7,8,11,12,13,14,15,16,17-dodecahydrocyclopenta[a]phenanthren-3-one]
79	63	0.02	0.08	C[C@]12C[C@H](c3ccc(C#N)cc3)C3=C4CCC(=O)C=C4CC[C@H]3[C@@H]1CC[C@@]2(O)C(F)(F)C(F)(F)F [Example 30, 4-((8S,11R,13S,14S,17S)-17-hydroxy-13-methyl-3-oxo-17-pentafluoroethyl-2,3,6,7,8,11,12,13,14,15,16,17-dodecahydro-1H-cyclopenta[a]phenanthren-11-yl)benzonitrile]
